Test [1] has as its target T1, Human NPY5 receptor (Homo sapiens, UniProt Q15761).
T1 sequence (Q15761 1-445): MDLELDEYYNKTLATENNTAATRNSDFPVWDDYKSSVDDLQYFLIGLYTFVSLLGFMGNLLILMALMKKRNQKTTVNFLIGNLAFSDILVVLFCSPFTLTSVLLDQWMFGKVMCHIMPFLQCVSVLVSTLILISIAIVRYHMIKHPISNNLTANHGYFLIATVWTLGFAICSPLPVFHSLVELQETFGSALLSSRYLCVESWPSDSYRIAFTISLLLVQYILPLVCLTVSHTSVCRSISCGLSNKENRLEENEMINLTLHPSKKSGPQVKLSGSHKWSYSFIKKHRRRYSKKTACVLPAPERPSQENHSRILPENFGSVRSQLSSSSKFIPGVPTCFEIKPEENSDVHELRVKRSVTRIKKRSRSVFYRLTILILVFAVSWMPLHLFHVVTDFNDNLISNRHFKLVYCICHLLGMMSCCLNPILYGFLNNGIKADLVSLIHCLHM
The experiment in a line: Human NPY5 receptor binding assay ([125I]PYY, membrane protein). Put shortly:
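Radioligand displacement: 75-100 pM [125I]PYY (porcine), membranes, drug dilution; 2 h, RT, mixing; 25 mM Tris pH 7.4 with 0.1% BSA, 0.5 mg/ml bacitracin. NSB 1 μM PYY. Filtration on PEI-treated GF/C, ice-cold buffer wash, gamma or scintillation counting.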

For test [2], the target named is T2, Y2 receptor (Homo sapiens, UniProt P49146).
T2 sequence (P49146 1-381): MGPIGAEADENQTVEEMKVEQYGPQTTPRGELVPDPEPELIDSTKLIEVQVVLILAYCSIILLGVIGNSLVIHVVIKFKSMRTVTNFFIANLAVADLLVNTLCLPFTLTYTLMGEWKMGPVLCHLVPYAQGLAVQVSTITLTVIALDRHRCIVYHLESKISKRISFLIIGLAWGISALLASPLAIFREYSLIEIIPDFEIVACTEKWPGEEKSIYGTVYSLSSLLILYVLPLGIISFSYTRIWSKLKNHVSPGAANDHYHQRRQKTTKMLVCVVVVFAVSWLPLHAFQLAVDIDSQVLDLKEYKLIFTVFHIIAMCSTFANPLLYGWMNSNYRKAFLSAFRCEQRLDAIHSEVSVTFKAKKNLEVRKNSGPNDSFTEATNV
The experiment in a line: Y2 receptor binding assay ([125I]PYY, membrane protein). The following applies: read-out: hNPY2 IC50. In short, it runs like this:
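Filtration binding with membrane protein and drug dilution, 2 h at room temperature with mixing, radioactivity counted by gamma or scintillation. Y2: 25 pM [125I]PYY in Krebs-Ringer bicarbonate pH 7.4 with 0.01% BSA, nonspecific by 1 μM NPY. Y4/PP1: 50 pM [125I]hPP in HEPES-buffered saline pH 7.4 with protease inhibitors and 0.3% BSA, nonspecific by 1 μM hPP.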

[3] abbreviates: [125I]PYY binding, read-out: hNPY5 IC50.
[4] abbreviates: [125I]PYY binding, membrane protein.

One may read the IC50 as the midpoint of a concentration-inhibition curve.

Read-outs that look alike come from different tables or passages of the source.

Regarding `O=C(CN1CCC(CCCC2CCNCC2)CC1)Nc1ccc(C2CCCCC2)cc1` [Compound 23, N-(4-Cyclohexyl-phenyl)-2-[4-(3-piperidin-4-yl-propyl)-piperidin-1-yl]-acetamide], the results for the IC50 in test [1] (setting [3]) and in test [2] (setting [4]) were above 10 µM and above 5 µM, respectively.

Regarding “2-[4-(4-Bromo-phenyl)-4-hydroxy-piperidin-1-yl]-N-(4-cyclohexyl-phenyl)-acetamide [Compound 88]”, the IC50 in test [1] (setting [3]) was 0.12 µM; in test [2] (setting [4]), above 5 µM.

Turning to “N-(4-Benzoyl-phenyl)-2-(4-benzyl-4-hydroxy-piperidin-1-yl)-acetamide [Compound 111]”, the IC50 was 0.16 µM in test [1] (setting [3]) and above 5 µM in test [2] (setting [4]).

Regarding `CC1(C)CC(C(N)=O)C(C)(C)N1CC(=O)Nc1ccc(C2CCCCC2)cc1` (stereo not drawn) [Compound 114, 1-[(4-Cyclohexyl-phenylcarbamoyl)-methyl] 2,2,5,5-tetramethyl-pyrrolidine-3-carboxylic acid amide], the results for the IC50 in test [1] (setting [3]) and in test [2] (setting [4]) were 2.4 µM and above 5 µM, respectively.

In the case of `O=C(CN1CC[C@@H](O)C1)Nc1ccc(C2CCCCC2)cc1` [Compound 80, N-(4-Cyclohexyl-phenyl)-2-(3R-hydroxy-pyrrolidin-1-yl)-acetamide], the results for the IC50 in test [1] (setting [3]) and in test [2] (setting [4]) were 1.4 µM and above 5 µM, respectively.

As for `O=C(CN1CCN(Cc2ccccc2)CC1)Nc1ccc(C2CCCCC2)cc1` [Compound 13, 2-(4-Benzyl-piperazin-1-yl)-N-(4-cyclohexyl-phenyl)-acetamide], the IC50 was 9.1 µM in test [1] (setting [3]) and above 5 µM in test [2] (setting [4]).

As for `O=C(CN1CCC(C(=O)O)CC1)Nc1ccc(C(=O)c2ccccc2)cc1` [Compound 40, 1-[(4-Benzoyl-phenylcarbamoyl)-methyl]-piperidine-4-carboxylic acid], the values for the IC50 in test [1] (setting [3]) and in test [2] (setting [4]) were above 10 µM and above 5 µM, respectively.

In the case of `O=C(CN1CCC(Cc2ccccc2)CC1)Nc1ccc(C(=O)c2ccccc2)cc1` [Compound 38, N-(4-Benzoyl-phenyl)-2-(4 benzyl-piperidin-1-yl)-acetamide], the IC50 in test [1] (setting [3]) is 8.5 µM; in test [2] (setting [4]), above 5 µM.

Turning to `O=C(CN1CC=C(c2ccc(Cl)cc2)CC1)Nc1ccc(C(=O)c2ccccc2)cc1` [Compound 18, N-(4-Benzoyl-phenyl)-2-[4-(4-chloro-phenyl)-3,6-dihydro-2H-pyridin-1-yl]-acetamide], the figures for the IC50 in test [1] (setting [3]) and in test [2] (setting [4]) were 5.2 µM and above 5 µM, respectively.

As to `CC(O)C1CCN(CC(=O)Nc2ccc(C(=O)c3ccccc3)cc2)CC1` (stereo not drawn) [Compound 70, N-(4-Benzoyl-phenyl)-2-[4-(1-hydroxy-ethyl)-piperidin-1-yl]-acetamide], the IC50 in test [1] (setting [3]) was 3.7 µM; in test [2] (setting [4]), above 5 µM.

Consider `CN(C)C1CCN(CC(=O)Nc2ccc(C3CCCCC3)cc2)CC1` [Compound 32, N-(4-Cyclohexyl-phenyl)-2-(4-dimethylamino-piperidin-1-yl)-acetamide], for which the figures for the IC50 in test [1] (setting [3]) and in test [2] (setting [4]) were 3 µM and above 5 µM, respectively.

As for `O=C(CN1CCC[C@@H]1C(O)(c1ccccc1)c1ccccc1)Nc1ccc(C(=O)c2ccccc2)cc1` [Compound 82, N-(4-Benzoyl-phenyl)-2-[2R-(hydroxy-diphenyl-methyl)-pyrrolidin-1-yl]-acetamide], the IC50 in test [1] (setting [3]) and in test [2] (setting [4]) was above 5 µM in each case.

For `CC(=O)NCC1(c2ccccc2)CCN(CC(=O)Nc2ccc(C(=O)c3ccccc3)cc2)CC1` [Compound 56, 2-[4-(Acetylamino-methyl)-4-phenyl-piperidin-1-yl]-N-(4-benzoyl-phenyl)-acetamide], the IC50 in test [1] (setting [3]) is 0.208 µM; in test [2] (setting [4]) it was above 5 µM.

As for `O=C(CN1CCC[C@H]1CO)Nc1ccc(C2CCCCC2)cc1` [Compound 84, N-(4-Cyclohexyl-phenyl)-2-(2S-hydroxymethyl-pyrrolidin-1-yl)-acetamide], the IC50 was 0.93 µM in test [1] (setting [3]) and above 5 µM in test [2] (setting [4]).

For `O=C(CN1CCC(Br)CC1)Nc1ccc(C(=O)c2ccccc2)cc1` [Compound 108, N-(4-Benzoyl-phenyl)-2-(4-bromo-piperidin-1-yl)-acetamide], the IC50 in test [1] (setting [3]) was 0.97 µM; in test [2] (setting [4]), above 5 µM.

For the compound `O=C(CN1CCC[C@@H]1C(O)(c1ccccc1)c1ccccc1)Nc1ccc(C2CCCCC2)cc1` [Compound 83, N-(4-Cyclohexyl-phenyl)-2-[2R-(hydroxy-diphenyl-methyl)-pyrrolidin-1-yl]-acetamide], the results for the IC50 in test [1] (setting [3]) and in test [2] (setting [4]) were 0.92 µM and above 5 µM, respectively.

As for `CNC1(C(N)=O)CCN(CC(=O)Nc2ccc(C(=O)c3ccccc3)cc2)CC1` [Compound 46, 1-[(4-Benzoyl-phenylcarbamoyl)-methyl]-4-methylamino-piperidine-4-carboxylic acid amide], the figures for the IC50 in test [1] (setting [3]) and in test [2] (setting [4]) were 0.005 µM and above 5 µM, respectively.

As for `O=C(CN1CCC[C@@H]1CO)Nc1ccc(C2CCCCC2)cc1` [Compound 113, N-(4-Cyclohexyl-phenyl)-2-(2R-hydroxymethyl-pyrrolidin-1-yl)-acetamide], the IC50 in test [1] (setting [3]) is 0.7 µM; in test [2] (setting [4]), above 5 µM.

As to `CC(=O)C1(c2ccccc2)CCN(CC(=O)Nc2ccc(C(=O)c3ccccc3)cc2)CC1` [Compound 86, 2-(4-Acetyl-4-phenyl-piperidin-1-yl)-N-(4-benzoyl-phenyl)-acetamide], the IC50 in test [1] (setting [3]) is 0.001 µM; in test [2] (setting [4]), above 5 µM.

As to `CCN(CC)CC(=O)Nc1ccc(C(=O)c2ccccc2)cc1` [Compound 7, N-(4-Benzoyl-phenyl)-2-diethylamino-acetamide], the figures for the IC50 in test [1] (setting [3]) and in test [2] (setting [4]) were 1.6 µM and above 5 µM, respectively.

For `O=C(CN1[C@@H](C(=O)O)CC[C@@H]1O)Nc1ccc(C(=O)c2ccccc2)cc1` [Compound 20, (5S,2R)-1-[(4-Benzoyl-phenylcarbamoyl)-methyl]-5-hydroxy-pyrrolidine-2-carboxylic acid], the IC50 in test [1] (setting [3]) is 7.6 µM; in test [2] (setting [4]), above 5 µM.

With `O=C(CN1CCC[C@H]1C(=O)O)Nc1ccc(C(=O)c2ccccc2)cc1` [Compound 110, (2S)-1-[(4-Benzoyl-phenylcarbamoyl)-methyl]-pyrrolidine-2-carboxylic acid], the IC50 was 8.7 µM in test [1] (setting [3]) and above 5 µM in test [2] (setting [4]).

`O=C(CN1CCC(O)(c2ccccc2)CC1)Nc1ccc(C(=O)c2ccccc2)cc1` [Compound 41, N-(4-Benzoyl-phenyl)-2-(4-hydroxy-4-phenyl-piperidin-1-yl)-acetamide]: the IC50 in test [1] (hNPY5 IC50, [125I]PYY binding) is 0.06 µM; in test [2] (setting [4]), above 5 µM.

Consider `O=C(CN1CCC(O)(CCCc2ccccc2)CC1)Nc1ccc(C2CCCCC2)cc1` [Compound 61, N-(4-Cyclohexyl-phenyl)-2-[4-hydroxy-4-(3-phenyl-propyl)-piperidin-1-yl]-acetamide], for which the IC50 in test [1] (setting [3]) is 9.5 µM; in test [2] (setting [4]), above 5 µM.

As for “N-(4-Benzoyl-phenyl)-2-[4-(4-bromo-phenyl)-4-hydroxy-piperidin-1-yl]-acetamide [Compound 89]”, the IC50 in test [1] (setting [3]) was 0.52 µM; in test [2] (setting [4]), above 5 µM.

As to `O=C(CN1CCC(CCC2CCNCC2)CC1)Nc1ccc(C2CCCCC2)cc1` [Compound 54, N-(4-Cyclohexyl-phenyl)-2-[4-(2-piperidin-4-yl-ethyl)-piperidin-1-yl]-acetamide], the IC50 in test [1] (setting [3]) was 7.3 µM; in test [2] (setting [4]), above 5 µM.

Turning to `N#CC1(c2ccccc2)CCN(CC(=O)Nc2ccc(C(=O)c3ccccc3)cc2)CC1` [Compound 44, N-(4-Benzoyl-phenyl)-2-(4-cyano-4-phenyl-piperidin-1-yl)-acetamide], the IC50 in test [1] (setting [3]) was 0.093 µM; in test [2] it was above 5 µM.

Turning to `O=C(CN1CCN(c2ccccc2Cl)CC1)Nc1ccc(C(=O)c2ccccc2)cc1` [Compound 8, N-(4-Benzoyl-phenyl)-2-[4-(2-chloro-phenyl)-piperazin-1-yl]-acetamide], the values for the IC50 in test [1] (setting [3]) and in test [2] (setting [4]) were 0.96 µM and above 5 µM, respectively.

Turning to “N-(4-Cyclohexyl-phenyl)-2-[4-hydroxy-4-(3-trifluoromethyl-phenyl)-piperidin-1-yl]-acetamide [Compound 62]”, the figures for the IC50 in test [1] (setting [3]) and in test [2] (setting [4]) were 0.42 µM and above 5 µM, respectively.

As for `O=C(CNCc1ccccc1)Nc1ccc(C2CCCCC2)cc1` [Compound 11, 2-Benzylamino-N-(4-cyclohexyl-phenyl)-acetamide], the results for the IC50 in test [1] (setting [3]) and in test [2] (setting [4]) were 2.8 µM and above 5 µM, respectively.

The values are drawn from patent publication US6410792B1, “Amide derivatives and methods for using the same as selective neuropeptide Y receptor antagonists” (Bayer Corporation, priority 1997, dated 2002).
